In the assay the target is T1, DPP-IV (Homo sapiens, UniProt P27487).
T1 construct: from tissue; host or cells: human plasma (diluted 30-fold)
Put plainly: DPP-IV inhibition, Gly-Pro-MCA substrate, human plasma as enzyme source (Pharmacological Test Example 1). Type of assay: biochemical. The settings on record: 30 minutes at room temperature. The protocol: In screening of DPP-IV inhibitor, the following method using glycyl-proline-4-methylcumalyl-7-amide (Gly-Pro-MCA) as substrate was used.
There after, human plasma (20 μl) diluted30-fold with the measurement buffer was added to each well, stirred and reacted at room temperature for 30 minutes in the dark.
Inhibitory activity on DPP-IV=100×(1−(Fs−Fb)/F100−Fb) F100:fluorescence intensity obtained by reaction with plasma. Fb:fluorescence intensity of a blank where the reaction was carried out with the reaction terminating solution added. Fs:fluorescence intensity obtained by adding the test substance.

This note sets out measurements from patent US7345180B2, “Compound inhibiting dipeptidyl peptidase IV” (Sanwa Kagaku Kenkyusho Co., Ltd., priority 2003, dated 2008).

By IC50 is commonly meant the concentration needed to halve the response being measured. Higher therefore signals lower potency.

T1 sequence (P27487 39-766 limits assumed): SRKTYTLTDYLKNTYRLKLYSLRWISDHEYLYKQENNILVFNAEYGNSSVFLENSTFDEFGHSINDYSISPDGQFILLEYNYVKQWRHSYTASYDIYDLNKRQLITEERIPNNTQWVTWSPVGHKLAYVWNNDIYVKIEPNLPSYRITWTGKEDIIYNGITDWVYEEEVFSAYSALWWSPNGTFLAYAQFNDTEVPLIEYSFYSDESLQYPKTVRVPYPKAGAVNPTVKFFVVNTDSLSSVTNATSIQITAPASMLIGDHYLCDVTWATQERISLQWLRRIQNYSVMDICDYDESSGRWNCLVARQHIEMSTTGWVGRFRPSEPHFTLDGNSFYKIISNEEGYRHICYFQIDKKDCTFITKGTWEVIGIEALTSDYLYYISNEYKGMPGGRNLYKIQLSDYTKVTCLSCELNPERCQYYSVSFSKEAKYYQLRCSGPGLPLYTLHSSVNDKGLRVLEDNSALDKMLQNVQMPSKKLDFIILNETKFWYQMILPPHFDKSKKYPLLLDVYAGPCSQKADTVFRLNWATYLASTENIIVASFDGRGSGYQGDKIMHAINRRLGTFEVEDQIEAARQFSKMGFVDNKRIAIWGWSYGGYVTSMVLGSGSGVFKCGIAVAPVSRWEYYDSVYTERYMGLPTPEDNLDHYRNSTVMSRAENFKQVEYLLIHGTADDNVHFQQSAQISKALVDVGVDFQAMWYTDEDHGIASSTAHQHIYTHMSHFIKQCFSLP

The compound `Cc1nn(C)c2ncc(C(=O)NCCNCC(=O)N3CCC[C@H]3C#N)cc12` [Compound 122] displayed an IC50 of 26 nM.

Regarding `N#C[C@@H]1CCCN1C(=O)CNCCNC(=O)c1cnc2n(c1=O)CCS2` [Compound 126], the IC50 worked out at 31 nM.

The compound `COc1c(C(=O)NCC(C)(C)NCC(=O)N2CCC[C@H]2C#N)c(C)nc2cc(C)nn12` [Example 4] gave an IC50 of 87 nM.

The compound `COc1c(C(=O)NCC(C)(C)NCC(=O)N2CCC[C@H]2C#N)c(C)nc2cc(-c3ccccc3)nn12` [Example 10] showed an IC50 of 85 nM. The IC50 values of the last two compounds are within 1.5-fold of each other.

Compound `Cc1cc2nc(O)c(C(=O)NCC(C)(C)NCC(=O)N3CCC[C@H]3C#N)cn2n1` [Example 11] yielded an IC50 of 68 nM.

As to `CC(C)(CNC(=O)c1cnc2cc(CO)nn2c1)NCC(=O)N1CCC[C@H]1C#N` [Example 13], the midpoint of inhibition, the IC50, lay at 24 nM.

In turn, `CC(C)(CNC(=O)c1c[nH]c2ccccc12)NCC(=O)N1CCC[C@H]1C#N` [Example 15] registered an IC50 of 28 nM. The IC50 values of the last two compounds are within 1.5-fold of each other.

The compound `CC(C)(CNC(=O)c1ccc2[nH]ccc2c1)NCC(=O)N1CCC[C@H]1C#N` [Example 16] came in with an IC50 of 33 nM.

In turn, `Cn1cc(C(=O)NCC(C)(C)NCC(=O)N2CCC[C@H]2C#N)c2ccccc21` [Example 18] came in with an IC50 of 36 nM. The IC50 values of the last two compounds are within 1.5-fold of each other.

Compound `Cn1ccc2c(C(=O)NCC(C)(C)NCC(=O)N3CCC[C@H]3C#N)cccc21` [Example 19] had an IC50 of 50 nM.

In the case of `Cn1ccc2cc(C(=O)NCC(C)(C)NCC(=O)N3CCC[C@H]3C#N)ccc21` [Example 20], the IC50 turned out to be 52 nM.

The compound `Cn1ccc2ccc(C(=O)NCC(C)(C)NCC(=O)N3CCC[C@H]3C#N)cc21` [Example 21] gave an IC50 of 28 nM.

Regarding `Cn1ccc2cccc(C(=O)NCC(C)(C)NCC(=O)N3CCC[C@H]3C#N)c21` [Example 22], the IC50 came out at 73 nM.

`COc1cccc2c1cc(C(=O)NCC(C)(C)NCC(=O)N1CCC[C@H]1C#N)n2C` [Example 23] had an IC50 of 82 nM.

With `COc1ccc2cc(C(=O)NCC(C)(C)NCC(=O)N3CCC[C@H]3C#N)n(C)c2c1` [Example 24], the IC50 was found to be 43 nM.

For `COc1cc(OC)c2cc(C(=O)NCC(C)(C)NCC(=O)N3CCC[C@H]3C#N)n(C)c2c1` [Example 25], inhibition was half-maximal at 48 nM (IC50).

Regarding `COc1ccc2c(c1)c(C(=O)NCC(C)(C)NCC(=O)N1CCC[C@H]1C#N)c(C)n2C` [Example 26], the IC50 came out at 33 nM.

In the case of `COc1ccc2c(c1)c(C(=O)NCC(C)(C)NCC(=O)N1CCC[C@H]1C#N)cn2C` [Example 27], inhibition was half-maximal at 21 nM (IC50). Against the preceding compound, the IC50 is about 1.6-fold lower.

`COc1cc(C(=O)NCC(C)(C)NCC(=O)N2CCC[C@H]2C#N)cc2ccn(C)c12` [Example 28]: the IC50 amounted to 78 nM.

`CC(C)Cn1cc(C(=O)NCC(C)(C)NCC(=O)N2CCC[C@H]2C#N)c2ccccc21` [Example 30] registered an IC50 of 89 nM. This IC50 and that of the compound before are within 1.5-fold of each other.

In turn, `CC(C)(C)Cn1ccc2cc(C(=O)NCC(C)(C)NCC(=O)N3CCC[C@H]3C#N)ccc21` [Example 31] yielded an IC50 of 49 nM. This IC50 lies about 1.8-fold lower than the previous one.

`CC(C)Cn1ccc2cc(C(=O)NCC(C)(C)NCC(=O)N3CCC[C@H]3C#N)ccc21` [Example 32] displayed an IC50 of 48 nM. The IC50 values of the last two compounds are within 1.5-fold of each other.

Turning to `CC(C)(CNC(=O)c1cn(COCc2ccccc2)c2ccccc12)NCC(=O)N1CCC[C@H]1C#N` [Example 33], the IC50 amounted to 71 nM.

The compound `COCn1cc(C(=O)NCC(C)(C)NCC(=O)N2CCC[C@H]2C#N)c2ccccc21` [Example 34] came in with an IC50 of 23 nM.

In turn, `CC(=O)OCn1cc(C(=O)NCC(C)(C)NCC(=O)N2CCC[C@H]2C#N)c2ccccc21` [Example 35] came in with an IC50 of 37 nM.

`CC(C)(CNC(=O)c1ccc2c(ccn2COCc2ccccc2)c1)NCC(=O)N1CCC[C@H]1C#N` [Example 36] gave an IC50 of 45 nM.

In turn, `CC(C)(CNC(=O)c1ccc2c(ccn2CO)c1)NCC(=O)N1CCC[C@H]1C#N` [Example 37] yielded an IC50 of 17 nM. This IC50 is about 2.6-fold lower than that of the compound before.

`COCn1ccc2cc(C(=O)NCC(C)(C)NCC(=O)N3CCC[C@H]3C#N)ccc21` [Example 38] had an IC50 of 25 nM.

On to `COc1ccc2c(c1)c(C(=O)NCC(C)(C)NCC(=O)N1CCC[C@H]1C#N)cn2CC(C)(C)C` [Example 39], for which the IC50 was 73 nM.

The compound `CC(C)(C)Cn1cc(C(=O)NCC(C)(C)NCC(=O)N2CCC[C@H]2C#N)c2cc(O)ccc21` [Example 41] showed an IC50 of 25 nM.

With `CC(C)(CNC(=O)c1cn(COC(=O)C(C)(C)C)c2ccccc12)NCC(=O)N1CCC[C@H]1C#N` [Example 42], the IC50 worked out at 27 nM.

`CC(C)(CNC(=O)c1ccc2c(ccn2CC(=O)OC(C)(C)C)c1)NCC(=O)N1CCC[C@H]1C#N` [Example 43] yielded an IC50 of 16 nM.

In turn, `CN1CCc2cc(C(=O)NCC(C)(C)NCC(=O)N3CCC[C@H]3C#N)ccc21` [Example 44] had an IC50 of 37 nM. Compared with the last compound, the IC50 is about 2.3-fold higher.

As for `CC(=O)n1cc(C(=O)NCC(C)(C)NCC(=O)N2CCC[C@H]2C#N)c2ccccc21` [Example 45], the midpoint of inhibition, the IC50, lay at 28 nM.

Compound `CC(=O)N1CCc2cc(C(=O)NCC(C)(C)NCC(=O)N3CCC[C@H]3C#N)ccc21` [Example 46] yielded an IC50 of 19 nM.

The compound `CC(=O)n1ccc2cc(C(=O)NCC(C)(C)NCC(=O)N3CCC[C@H]3C#N)ccc21` [Example 47] showed an IC50 of 24 nM.

With `CC(C)(CNC(=O)c1ccc2c(ccn2C(=O)c2ccccc2)c1)NCC(=O)N1CCC[C@H]1C#N` [Example 48], the IC50 is 31 nM. This IC50 and that of the compound before are within 1.5-fold of each other.

For `CC(C)(CNC(=O)c1ccc2c(ccn2C(=O)C(C)(C)C)c1)NCC(=O)N1CCC[C@H]1C#N` [Example 49], the IC50 turned out to be 20 nM.

`CC(C)(CNC(=O)c1ccc2c(c1)CCN2C(=O)C(F)(F)F)NCC(=O)N1CCC[C@H]1C#N` [Example 50] had an IC50 of 20 nM.

On to `CC(C)(CNC(=O)c1ccc2ncsc2c1)NCC(=O)N1CCC[C@H]1C#N` [Example 51], for which inhibition was half-maximal at 26 nM (IC50).

The compound `COc1cc(C(=O)NCC(C)(C)NCC(=O)N2CCC[C@H]2C#N)cc2sc(C(F)(F)F)nc12` [Example 53] had an IC50 of 48 nM. This IC50 is about 1.8-fold higher than that of the compound before.

`CC(C)(CNC(=O)c1ccc2[nH]c(=O)sc2c1)NCC(=O)N1CCC[C@H]1C#N` [Example 55] returned an IC50 of 24 nM.

`Cn1cnc2cc(C(=O)NCC(C)(C)NCC(=O)N3CCC[C@H]3C#N)ccc21` [Example 56] showed an IC50 of 30 nM. The IC50 values of the last two compounds are within 1.5-fold of each other.

Compound `Cc1nc2ccc(C(=O)NCC(C)(C)NCC(=O)N3CCC[C@H]3C#N)cc2o1` [Example 57] displayed an IC50 of 35 nM.

For `CC(C)(CNC(=O)C1Cc2ccccc2C1)NCC(=O)N1CCC[C@H]1C#N` [Example 59], the IC50 amounted to 50 nM.

`CC(C)(CC(=O)N1Cc2ccc(F)cc2C1)NCC(=O)N1CCC[C@H]1C#N` [Example 63] returned an IC50 of 18 nM.

Regarding `CC(C)(CC(=O)N1Cc2ccc(Br)cc2C1)NCC(=O)N1CCC[C@H]1C#N` [Example 64], the IC50 worked out at 24 nM.

Turning to `CC(C)(CC(=O)N1Cc2ccc(Cl)cc2C1)NCC(=O)N1CCC[C@H]1C#N` [Example 65], the IC50 came to 11 nM.

`CC(C)(CC(=O)N1Cc2ccc(C(C)(C)C)cc2C1)NCC(=O)N1CCC[C@H]1C#N` [Example 66]: the IC50 worked out at 50 nM. Compared with the last compound, the IC50 is about 4.5-fold higher.

The compound `CC(C)(CC(=O)N1Cc2cccc(F)c2C1)NCC(=O)N1CCC[C@H]1C#N` [Example 67] had an IC50 of 7 nM.

Take `Cc1cccc2c1CN(C(=O)CC(C)(C)NCC(=O)N1CCC[C@H]1C#N)C2` [Example 68]: 16 nM corresponded to half-maximal inhibition (IC50).

As to `CC(C)(CC(=O)N1Cc2c(Cl)ccc(Cl)c2C1)NCC(=O)N1CCC[C@H]1C#N` [Example 69], 21 nM corresponded to half-maximal inhibition (IC50).

On to `CC(C)(CC(=O)N1Cc2cccc(O)c2C1)NCC(=O)N1CCC[C@H]1C#N` [Example 70], for which the IC50 came to 32 nM.

Regarding `CC(C)(CC(=O)N1Cc2ccc(CO)cc2C1)NCC(=O)N1CCC[C@H]1C#N` [Example 71], half-maximal inhibition (IC50) required 2 nM. Against the preceding compound, the IC50 is about 16-fold lower.

`CC(C)(CC(=O)N1Cc2ccc(C(F)(F)F)cc2C1)NCC(=O)N1CCC[C@H]1C#N` [Example 72] registered an IC50 of 39 nM.

Compound `CC(C)(CC(=O)N1Cc2c(Cl)c(Cl)c(Cl)c(Cl)c2C1)NCC(=O)N1CCC[C@H]1C#N` [Example 73] showed an IC50 of 94 nM.

`CC(C)(CC(=O)N1Cc2cc(Cl)c(Cl)cc2C1)NCC(=O)N1CCC[C@H]1C#N` [Example 74]: it took 44 nM to reach half-maximal inhibition (IC50). Against the preceding compound, the IC50 is about 2.1-fold lower.

`Cc1cc(O)c2c(c1)CN(C(=O)CC(C)(C)NCC(=O)N1CCC[C@H]1C#N)C2` [Example 75] came in with an IC50 of 14 nM.

Turning to `COc1cc(C)cc2c1CN(C(=O)CC(C)(C)NCC(=O)N1CCC[C@H]1C#N)C2` [Example 76], inhibition was half-maximal at 22 nM (IC50).

On to `COc1cccc2c1CN(C(=O)CC(C)(C)NCC(=O)N1CCC[C@H]1C#N)C2` [Example 78], for which half-maximal inhibition (IC50) was put at 15 nM.

Compound `CC(C)(CCC(=O)N1Cc2ccccc2C1)NCC(=O)N1CCC[C@H]1C#N` [Example 82] yielded an IC50 of 17 nM.

The compound `N#C[C@@H]1CCCN1C(=O)CNCCC(=O)N1Cc2ccccc2C1` [Example 89] had an IC50 of 25 nM.

`N#C[C@@H]1CCCN1C(=O)CNCCC(=O)N1CCc2ccccc21` [Example 91] showed an IC50 of 82 nM.

As to `N#C[C@@H]1CCCN1C(=O)CNCCC(=O)Nc1nc2ccccc2s1` [Example 93], the IC50 came out at 62 nM.

The compound `N#C[C@@H]1CCCN1C(=O)CNCCNC(=O)c1ccc2ncsc2c1` [Example 95] came in with an IC50 of 13 nM.

Consider `Cc1nc2ccc(C(=O)NCCNCC(=O)N3CCC[C@H]3C#N)cc2s1` [Example 101], for which half-maximal inhibition (IC50) was put at 66 nM.

As for `COc1cc2ncsc2cc1C(=O)NCCNCC(=O)N1CCC[C@H]1C#N` [Example 102], the half-maximal inhibitory concentration (IC50) worked out at 90 nM.

Turning to `N#C[C@@H]1CCCN1C(=O)CNCCCCNC(=O)c1ccc2ncsc2c1` [Example 105], the IC50 turned out to be 31 nM.
